Laboratory results reported in PMC5187537, “Antioxidant Activity of Oat Proteins Derived Peptides in Stressed Hepatic HepG2 Cells” (Antioxidants, 2016).
Peptide text beside a SMILES is read from it.

What was measured:
Format in all cases: cell-based, Human
HepG2 cells = conditions: 50 or 100 µM peptide 24 h, then 20 mM AAPH 24 h, MTT
Description: Human hepatocellular carcinoma (HepG2) cells were purchased from the American Type Culture Collection (ATCC; Manassas, VA, USA). They were cultured at 37 °C in a humidified incubator with 5% CO2 and 95% air. Dulbecco’s Minimal Essential Media (DMEM) supplemented with 10% (v/v) Fetal Bovine Serum was used for the maintenance of cells. […] The MTT (3-(4,5-dimethylthiazol-2-yl)-2,5-diphenyltetrazolium bromide) assay, as described in an earlier research, was used for cytotoxicity and cytoprotective tests. […] Following another 24 h incubation, cells were washed twice with 200 µL of PBS. Ten µL of MTT solution (5 mg/mL in PBS) and 100 µL of media were added to each well. After 1 h, MTT solution was removed, and 50 µL DMSO were added. Absorbances were recorded at 570 nm with 630 nm background subtraction using a BioTek Epoch™ microplate reader (Fisher Scientific, Nepean, ON, Canada). Untreated cells were used as negative control (NC) and cells treated with only AAPH were used as positive control (PC).

catalase (CAT) = assay: Catalase activity of lysates of AAPH-stressed cells; conditions: then AAPH 24 h; for Further increase of CAT activity compared to PC cells: 50 µM peptide 24 h
Description: (§1) Cells were seeded at 1 × 10^6 cells/plate in 60 mm tissue culture plates and allowed to grow for 24 h. In each plate, cells were washed twice with 4 mL of PBS (pH 7.2), and treated with 4 mL peptide samples (P1, P2, P6, P7) dissolved in culture media at 50 or 100 µM for 24 h. After removal of peptide solutions, cells were washed twice with 4 mL of PBS/plate and treated with 4 mL of […] dissolved in culture media and allowed to incubate for 24 h. Cells in each culture plate were harvested by incubation (5 min) with 0.5 mL of 0.25% trypsin, addition of 1 mL of culture media and centrifugation at 1000× g for 5 min. Cell pellets were washed with ice cold PBS (500 µL each) until no pink color was observed, re-suspended in ice cold PBS (300 µL) for the superoxide dismutase (SOD) assay, 500 µL for glutathione peroxidase (GPx) and catalase (CAT) assays. For total glutathione assay, 300 µL of 5% ice cold sulfosalicylic acid bubbled with 100% nitrogen was used for cell lysis. Cells were lysed by sonication on ice for 1 min using a probe-type sonicator (Vibra-Cell, Sonics and Materials Inc., Newtown, CT, USA) pulsing at 15 s on and 10 s off cycles. Following centrifugation of cell lysate at 13,000× g (4 °C), pellets containing cell debris were discarded, while supernatants were used for determination of glutathione content. Protein contents were determined using a modified Lowry assay. To measure the catalase activity, 1790 µL potassium phosphate buffer (50 mM, pH 7.0) was mixed with 200 µL cell lysate in a UV cuvette. Ten µL of H2O2 (30%) was added, and removal of H2O2 by catalase was followed at 240 nm using a Cary 50 Bio UV-Vis spectrophotometer with 18-cell changer (Varian Inc., Mississauga, ON, Canada). The activity was expressed as a percentage of control.

[1] = system: glutathione peroxidase (GPx); assay: Glutathione peroxidase activity of lysates of AAPH-stressed cells; conditions: then AAPH 24 h; for Effect on GPx activity of AAPH-stressed cells: 50 µM peptide 24 h; for Increase of GPx activity above that of normal cells: 100 µM peptide 24 h, p < 0.05
Description: as §1, with “assay.” for “assay. To measure the catalase activity, 1790 µL potassium phosphate buffer (50 mM, pH 7.0) was mixed with 200 µL cell lysate in a UV cuvette. Ten µL of H2O2 (30%) was added, and removal of H2O2 by catalase was followed at 240 nm using a Cary 50 Bio UV-Vis spectrophotometer with 18-cell changer (Varian Inc., Mississauga, ON, Canada). The activity was expressed as a percentage of control.”
The activity of GPx was determined as previously described in a 96-well plate. Briefly, in each well, 187.5 µL of potassium phosphate buffer was mixed with 12.5 µL NADPH (4 mM) solution and 25 µL of cell lysates or buffer (blank), and incubated at 30 °C for 5 min. Then, 100 µL of 0.15% cumene hydroperoxide was added in each well to begin the reaction. The rate of disappearance of NADPH was followed at 340 nm for 5 min. The activity was expressed as Units of GPx activity/mg protein.

CC[C@H](C)[C@H](NC(=O)[C@H](Cc1ccc(O)cc1)NC(=O)[C@@H](NC(=O)[C@H](CC(C)C)NC(=O)CNC(=O)[C@@H]1CCCN1C(=O)[C@H](C)NC(=O)[C@H](CC(N)=O)NC(=O)[C@H](Cc1c[nH]cn1)NC(=O)[C@@H](N)Cc1ccc(O)cc1)C(C)C)C(=O)N[C@@H](CC(C)C)C(=O)O [P6] (H-YHNAPGLVYIL-OH; N-terminus and C-terminus assumed)
Cytoprotective effect against AAPH-induced damage (HepG2 cells): cytoprotective
Further increase of CAT activity compared to PC cells (catalase (CAT)): 60%
Effect on GPx activity of AAPH-stressed cells [1]: completely restored the activity
Increase of GPx activity above that of normal cells [1]: 38.6%

CC[C@H](C)[C@H](NC(=O)[C@H](Cc1ccc(O)cc1)NC(=O)[C@@H](NC(=O)[C@H](CC(C)C)NC(=O)CN)C(C)C)C(=O)N[C@@H](CC(C)C)C(=O)O [P2] (H-GLVYIL-OH; N-terminus and C-terminus assumed)
Further increase of CAT activity compared to PC cells (catalase (CAT)): 60%
Effect on CAT activity (catalase (CAT); 100 µM peptide 24 h): almost doubled
Effect on GPx activity of AAPH-stressed cells [1]: completely restored the activity
Increase of GPx activity above that of normal cells [1]: 30.2%
